Our source for the IC50 values is patent publication US20140135327A1, “N- (2 -AMINOPHENYL) BENZAMIDE DERIVATIVES AS HISTONE DEACETYLASE INHIBITORS” (CANCER RESEARCH TECHNOLOGY LIMITED, priority 2011, published 2014).

For one assay, the target named is T1, HDAC 1 (Homo sapiens, UniProt Q13547).
T1 construct: HDACs 1, 2, 3, 6, and 8 were expressed as full length fusion proteins; 6xHis; made in house; host or cells: Sf9 cells (baculovirus)
In words: Fluorescence-based HDAC isoform assay with electrophoretic separation, HDAC 1. Type of assay: biochemical. To be noted: isolated 6×His-tagged isoform, 1 μM FAM-labeled acetylated peptide, 17 h at 25° C. As to the method: (§1) The inhibitory effects of the compounds of Examples 7 and 9 above on HDAC activity were determined using a fluorescence-based assay with electrophoretic separation of substrate and product carried out using a microfluidic system followed by quantitation of fluorescence intensity in the substrate and product peaks.
(§2) The assays were performed using isolated HDAC isoforms that had been expressed as 6×His-tagged fusion proteins in a baculovirus expression system in Sf9 cells. HDACs 1, 2, 3, 6, and 8 were expressed as full length fusion proteins. For HDAC-4 and 7 only catalytic domains were expressed (HDAC-4 CAT and HDAC-7 CAT). The HDAC10 fusion protein was expressed as a carboxy-terminal deletion of 38 amino acids (residues 632-669). HDAC3 was coexpressed with a fragment of the SMRT gene (residues 395-489) to generate enzymatically active protein. Purified proteins were incubated with 1 μM carboxyfluorescein (FAM)-labeled acetylated peptide substrate and test compound for 17 h at 25° C. in HDAC assay buffer containing 100 mM HEPES (pH 7.5), 25 mM KCl, 0.1% BSA, and 0.01% Triton X-100. […] Substrate and product were separated electrophoretically using a Caliper LabChip 3000 system with blue laser excitation and green fluorescence detection (CCD2). The fluorescence intensity in the substrate and product peaks was determined using the Well Analyzer software on the Caliper system. […]

Another assay deals with T2, HDAC 10 (Homo sapiens, UniProt Q969S8).
T2 construct: 6xHis; made in house; host or cells: Sf9 cells (baculovirus)
T2 sequence (Q969S8 1-631): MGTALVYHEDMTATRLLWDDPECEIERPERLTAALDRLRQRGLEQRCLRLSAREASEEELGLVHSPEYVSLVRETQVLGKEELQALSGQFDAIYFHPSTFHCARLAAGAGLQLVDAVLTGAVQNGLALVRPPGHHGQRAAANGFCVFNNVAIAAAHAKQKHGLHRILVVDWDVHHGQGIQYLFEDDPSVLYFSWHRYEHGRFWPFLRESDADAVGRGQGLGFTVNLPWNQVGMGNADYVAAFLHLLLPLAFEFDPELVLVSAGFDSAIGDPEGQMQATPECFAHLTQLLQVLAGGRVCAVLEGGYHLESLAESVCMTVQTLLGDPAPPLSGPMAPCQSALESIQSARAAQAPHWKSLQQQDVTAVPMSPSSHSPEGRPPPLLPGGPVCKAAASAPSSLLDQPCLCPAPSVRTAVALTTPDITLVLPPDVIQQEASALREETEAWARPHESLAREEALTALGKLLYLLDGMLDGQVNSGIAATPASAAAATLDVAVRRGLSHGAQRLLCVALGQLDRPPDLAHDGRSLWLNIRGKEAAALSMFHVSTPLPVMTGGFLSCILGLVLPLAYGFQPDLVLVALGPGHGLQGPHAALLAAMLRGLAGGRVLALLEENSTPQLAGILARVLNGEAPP
Briefly: Fluorescence-based HDAC isoform assay with electrophoretic separation, HDAC 10. Type of assay: biochemical. To be noted: carboxy-terminal deletion of 38 amino acids, 1 μM FAM-labeled acetylated peptide, 17 h at 25° C. Here is the method:
as §1, §2

A value given as a limit tells only on which side of the number the result lay.

A word on the IC50: it is the concentration that inhibits the measured activity by half. High values mean a need for much substance, low ones inhibition by little substance.

T1 sequence (Q13547 whole entry, species assumed, the tested form may be a part): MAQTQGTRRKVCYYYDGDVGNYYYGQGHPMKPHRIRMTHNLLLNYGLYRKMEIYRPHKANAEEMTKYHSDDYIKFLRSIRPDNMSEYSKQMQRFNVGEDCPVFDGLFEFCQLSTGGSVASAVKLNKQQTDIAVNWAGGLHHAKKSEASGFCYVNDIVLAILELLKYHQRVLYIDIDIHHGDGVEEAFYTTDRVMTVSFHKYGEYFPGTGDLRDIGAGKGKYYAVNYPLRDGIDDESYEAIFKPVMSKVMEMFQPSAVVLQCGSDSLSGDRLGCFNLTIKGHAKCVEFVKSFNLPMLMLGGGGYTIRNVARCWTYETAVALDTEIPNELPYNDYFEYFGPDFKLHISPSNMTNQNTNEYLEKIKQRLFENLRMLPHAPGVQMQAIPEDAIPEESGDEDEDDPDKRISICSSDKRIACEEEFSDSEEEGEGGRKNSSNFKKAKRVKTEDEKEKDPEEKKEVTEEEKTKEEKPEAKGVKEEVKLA

Turning to `C=C1CN(Cc2ccc(C(=O)Nc3ccccc3N)cc2)C(=O)c2ccccc21` [Example 7, N-(2-Aminophenyl)-4-[(4-methylene-1-oxo-3,4-dihydroisoquino-2(1H)-yl)methyl]benzamide], the results for the IC50 against HDAC 1 and against HDAC 10 were 8.7 µM and 8.04 µM, respectively.

Take `C=C1CN(Cc2ccc(C(=O)Nc3ccccc3N)cc2)C(CC(=O)O)c2ccccc21` (stereo not shown) [Example 9, [2-(4-{[(2-Aminophenyl)amino]carbonyl}benzyl)-4-methylene-1,2,3,4-tetra hydroisoquinolin-1-yl]acetic acid]: the IC50 against HDAC 1 and on HDAC 10 was more than 30 µM throughout.
